Data from patent US9844599B2, “Nitric oxide releasing produgs of therapeutic agents” (priority 2013, dated 2017).

What was measured:
[1] = Stability of prodrugs at RT and at 50° C. (capped vials); format: physicochemical
[2] = test system: serum thromboxane B2 (TXB2) formation; assay: Inhibition of serum thromboxane B2 (TXB2) formation; format: in vivo, Sprague-Dawley (SD) rats; settings: SD rats, 30 mg/kg aspirin or equimolar 44.82 mg/kg, p.o., o.d., 7 days
Experimental: Aspirin is used as an antiplatelet agent for the treatment of cardiovascular complications. […] It is therefore possible to achieve complete suppression of platelet. TXA2 (and also TXB2) formation via chronic administration of aspirin at a dose of 30 mg/daily (Patrignani, P., et al. J. Clin. Invest. 1982, 69, 1366-1372). The antiplatelet activity of aspirin (30 mg/kg) and its prodrug I-D1-R1 (at a dose equimolar to 30 mg/kg dose of aspirin) was evaluated in Sprague-Dawley (SD) rats through estimation of serum TXB2 levels (Esser, R. et al., Br. J. Pharmacol. 2006, 144, 538-550) and the experimental results are presented in FIG. 7.
In vivo TXB2 inhibition potential of aspirin and NO-aspirin prodrugs was assessed in Sprague-Dawley (SD) rats; the serum TXB2 levels were estimated according to the reported procedure (R. Esser, R., et al., Br. J. Pharmacol. 2006, 144, 538-550). Thus, vehicle, aspirin (30 mg/kg) or aspirin prodrug I-D1-R1 (44.82 mg/kg which is equivalent to 30 mg/kg dose of aspirin) were administered orally to the overnight fasted SD rats. […] The serum TXB2 concentrations were determined by enzyme immunoassay (EIA) using commercially available TXB2 estimation kit (Cayman Chemicals, USA), according to the method described in kit information booklet.

[3] = Stability of prodrugs / release of parent drug in Simulated Gastric Fluid (SGF); format: in vitro ADME; settings: for % of Prodrug remaining (μM): simulated gi fluid
Experimental: SGF was prepared according to the procedure described in Test Solution—USP. Thus, 0.2 g of sodium chloride and 0.32 g of purified pepsin (Sigma, derived from porcine stomach mucosa with an activity of 800 to 2500 units per mg of protein) were dissolved in 0.7 mL of hydrochloric acid and sufficient water to make 100 mL. This test solution has a pH of about 1.2 and was utilized for in-vitro studies.
(§1) The solution of the test compound in acetonitrile (10 μL of […] solution) was dissolved in 990 μL of biological fluid (SGF/SIF/Human Plasma). The resulting reaction mixtures were incubated at 37° C. At specified time intervals, aliquots (60 μL) were withdrawn and added to acetonitrile (200 μL) and mixed well by vortexing for 2 minutes. The mixture was centrifuged at 13000 rpm for 15 min at 4° C., and the supernatant analyzed by HPLC. The amounts (area percentages) of the remaining intact prodrug (if any) and the released metabolite(s) were estimated by HPLC.
(§2) This was performed by using HPLC instrument (Waters alliance), pump 2695, and PDA detector 2996 with the following chromatographic parameters: Wavelength −210 nm; Column-Waters X-Terra RP-18, 150×3.9 mm, 5 μm; Injection volume, 25 μL; Run time, 13 min. Mode of operation was linear gradient with mobile phase A: Acetonitrile and B: 0.1% TFA in water (filtered and degassed). Flow rate was 1.0 mL/min at 25° C.

[4] = Stability / release of aspirin and salicylic acid in human plasma; format: in vitro ADME; settings: 100 μM, FIG. 11
Experimental: Human plasma was similarly obtained by processing the blood taken from healthy human male volunteers (age group 25-35 years) who had not consumed any NSAIDS one week prior to the collection of blood. This plasma was utilized for the in-vitro experiments.
as §1, §2

[5] = Stability / release of aspirin in Simulated Intestinal Fluid (SIF); format: in vitro ADME; settings: 1 mM concentration
Experimental: SIF was prepared according to the procedure described in Test Solution—USP. Thus, 0.68 g of monobasic potassium phosphate was dissolved in 25 mL of water followed by addition of 0.2N NaOH (7.7 mL) and water (50 mL). To this solution was added pancreatin (1 g) and mixed; the pH of the resulting solution was adjusted to about 6.8 with 0.2N HCl/0.2N NaOH and the solution, was diluted with water to 100 mL. The solution was utilized for in-vitro studies.
as §1
as §2, with “Flow rate was 1.0 mL/min at 25° C.” left out

[6] = Acute gastric ulcerogenesis activity study; settings: rats, acute oral; aspirin 100 mg/kg, I-D1-R1 298.85 mg/kg, naproxen 100 mg/kg, I-D2-R1 138.67 mg/kg
Experimental: The animals were sacrificed after 5 h of drug administration. The stomachs of the treated animals were separated, perfused with 2% formalin (10 mL), and a large curvature was excised. The severity of the mucosal damage was assessed on the basis of the size of the observed ulcer lesions in the images captured using a stereomicroscope attached to a digital camera (Stemi 2000, Zeiss, Germany). The Image Pro Plus software (version 5.1) was used to quantify the hemorrhagic/ulcer lesions in pixels and to convert them into mm^2. The total area of lesions was calculated for each treatment group and the measure of gastric ulcers (Mean±SEM) (mm^2) was estimated (FIGS. 5 and 6).

CC(=O)Oc1ccccc1C(=O)OC(C)O[N+](=O)[O-] (stereo not drawn) [I-D1-R1, 1-(nitrooxy)ethyl 2-acetoxybenzoate]
Asp (Aspirin) formed on storage ([1]; 50° C., 0 h): NIL | Prodrug (area %) on storage ([1]; 50° C., 0 h): 99.14% | SA (Salicylic acid) formed on storage ([1]; 50° C., 0 h): NIL | Prodrug (area %) on storage ([1]; 50° C., 1 m): 88.34% | SA (Salicylic acid) formed on storage ([1]; 50° C., 1 m): 0.6% | Asp (Aspirin) formed on storage ([1]; 50° C., 2 d): NIL | Prodrug (area %) on storage ([1]; 50° C., 2 d): 98.84% | SA (Salicylic acid) formed on storage ([1]; 50° C., 2 d): 0.1% | Asp (Aspirin) formed on storage ([1]; 50° C., 5 d): 0.3% | Prodrug (area %) on storage ([1]; 50° C., 5 d): 98.18% | SA (Salicylic acid) formed on storage ([1]; 50° C., 5 d): 0.14% | Degradation of prodrug on storage ([1]; 50° C., after 1 month): about 11% | Degradation of prodrug on storage ([1]; 50° C., after 5 days): ~1% | Asp (Aspirin) formed on storage ([1]; RT, 0 h): NIL | Prodrug (area %) on storage ([1]; RT, 0 h): 99.14% | SA (Salicylic acid) formed on storage ([1]; RT, 0 h): NIL | Asp (Aspirin) formed on storage ([1]; RT, 1 m): 0.13% | Prodrug (area %) on storage ([1]; RT, 1 m): 98.56% | SA (Salicylic acid) formed on storage ([1]; RT, 1 m): NIL | Asp (Aspirin) formed on storage ([1]; RT, 3 d): NIL | Prodrug (area %) on storage ([1]; RT, 3 d): 98.89% | SA (Salicylic acid) formed on storage ([1]; RT, 3 d): NIL | Asp (Aspirin) formed on storage ([1]; RT, 18 d): NIL | Prodrug (area %) on storage ([1]; RT, 18 d): 98.95% | SA (Salicylic acid) formed on storage ([1]; RT, 18 d): NIL | Stability on storage (in words) ([1]; RT, up to 1 month): very stable | Inhibition of TXB2 formation [2]: 72.59% | Release of parent drug on incubation in SGF (in words) [3]: released quantitative amounts of the parent drug aspirin | % of Aspirin Released (μM) ([3]; 0 min, 1 µM, pH 1.2): 0% | AUC of aspirin (released / remaining) in SGF ([3]; 1 µM, pH 1.2): 10406 µM·h | Aspirin released in SGF, less than that of aspirin ([3]; 1 µM, pH 1.2): about 15% | % of Aspirin Released (μM) ([3]; 5 min, 1 µM, pH 1.2): 18% | % of Aspirin Released (μM) ([3]; 10 min, 1 µM, pH 1.2): 44% | % of Aspirin Released (μM) ([3]; 30 min, 1 µM, pH 1.2): 97% | % of Aspirin Released (μM) ([3]; 60 min, 1 µM, pH 1.2): 100% | % of Aspirin Released (μM) ([3]; 120 min, 1 µM, pH 1.2): 100% | % of Prodrug remaining (μM) ([3]; 0 h, 1 µM, pH 1.2): 91% | % of Prodrug remaining (μM) ([3]; 5 min, 1 µM, pH 1.2): 82% | % of Prodrug remaining (μM) ([3]; 10 min, 1 µM, pH 1.2): 56% | % of Prodrug remaining (μM) ([3]; 0.5 h, 1 µM, pH 1.2): 3% | % of Prodrug remaining (μM) ([3]; 1 h, 1 µM, pH 1.2): 0% | % of Prodrug remaining (μM) ([3]; 2 h, 1 µM, pH 1.2): 0% | Salicylic acid released in human plasma (in words) [4]: large and proportional amount | Release of aspirin in SIF (in words) [5]: released significant amount of aspirin | Development of gastric ulcers or lesions [6]: none of the animals
